System: MV-4-11 cells
Assay: Gene expression microarray analysis (Affymetrix PrimeView) and GSEA
Type: cell-based, human
Design: RFU PODN (11730768_x_at) / Fold change /veh PODN (11730768_x_at) / RFU LINC00158 (11744669_a_at) / Fold change /veh LINC00158 (11744669_a_at) / RFU DUSP10 (11751237_a_at) / Fold change /veh DUSP10 (11751237_a_at) / RFU ID3 (11757404_x_at) / Fold change /veh ID3 (11757404_x_at) / RFU PLEKHG5 (11737974_s_at) / Fold change /veh PLEKHG5 (11737974_s_at) / RFU LRRC4B (11730491_at) / Fold change /veh LRRC4B (11730491_at) / RFU GIMAP4 (11747438_a_at) / Fold change /veh GIMAP4 (11747438_a_at) / RFU KRT8 (11758183_x_at) / Fold change /veh KRT8 (11758183_x_at) / RFU CNN1 (11734310_a_at) / Fold change /veh CNN1 (11734310_a_at) / RFU VPS37D (11726825_at) / Fold change /veh VPS37D (11726825_at) / RFU C10orf10 (11716522_x_at) / Fold change /veh C10orf10 (11716522_x_at) / RFU KIR2DL2 /// KIR2DL4 /// KIR2DL5A /// KIR2DL5B /// KIR2DS1 /// KIR2DS2 /// KIR2DS3 /// KIR2DS4 /// KIR3DL3 /// KIR3DL3 /// KIR3DS1 (11738374_at) / Fold change /veh KIR2DL2 /// KIR2DL4 /// KIR2DL5A /// KIR2DL5B /// KIR2DS1 /// KIR2DS2 /// KIR2DS3 /// KIR2DS4 /// KIR3DL3 /// KIR3DL3 /// KIR3DS1 (11738374_at) / RFU C1QL1 (11718748_at) / Fold change /veh C1QL1 (11718748_at) / RFU TMPRSS4 (11747572_a_at) / Fold change /veh TMPRSS4 (11747572_a_at) / RFU HAMP (11756126_x_at) / Fold change /veh HAMP (11756126_x_at) / RFU RNFT2 (11725882_a_at) / Fold change /veh RNFT2 (11725882_a_at) / RFU NR4A2 (11747474_a_at) / Fold change /veh NR4A2 (11747474_a_at) / RFU ABCC12 (11746883_a_at) / Fold change /veh ABCC12 (11746883_a_at) / RFU TMEM136 (11760407_x_at) / Fold change /veh TMEM136 (11760407_x_at) / RFU CLDN22 /// WWC2 (11732394_at) / Fold change /veh CLDN22 /// WWC2 (11732394_at) / RFU HLA-DPB1 (11760878_x_at) / Fold change /veh HLA-DPB1 (11760878_x_at) / RFU SPINT1 (11716480_a_at) / Fold change /veh SPINT1 (11716480_a_at) / RFU GAP43 (11754022_s_at) / Fold change /veh GAP43 (11754022_s_at) / RFU A4GNT (11735810_at) / Fold change /veh A4GNT (11735810_at) / RFU PRB3 (11715151_x_at) / Fold change /veh PRB3 (11715151_x_at) / RFU TUBB4B (11761932_at) / Fold change /veh TUBB4B (11761932_at) / RFU CAPN14 (11732068_a_at) / Fold change /veh CAPN14 (11732068_a_at) / RFU TMCC2 (11721928_a_at) / Fold change /veh TMCC2 (11721928_a_at) / RFU IRGQ (11745062_a_at) / Fold change /veh IRGQ (11745062_a_at) / RFU FAM174B (11720279_a_at) / Fold change /veh FAM174B (11720279_a_at) / RFU TMPRSS4 (11748680_a_at) / Fold change /veh TMPRSS4 (11748680_a_at) / RFU FAM212B (11763350_a_at) / Fold change /veh FAM212B (11763350_a_at) / RFU PLEKHG5 (11743358_a_at) / Fold change /veh PLEKHG5 (11743358_a_at) / RFU ZSCAN30 (11745921_a_at) / Fold change /veh ZSCAN30 (11745921_a_at) / RFU CMKLR1 (11741424_a_at) / Fold change /veh CMKLR1 (11741424_a_at) / RFU LOC101060620 /// MAPK8IP1 (11723275_at) / Fold change /veh LOC101060620 /// MAPK8IP1 (11723275_at) / RFU SPTSSB (11747773_x_at) / Fold change /veh SPTSSB (11747773_x_at) / RFU PRSS12 (11739890_at) / Fold change /veh PRSS12 (11739890_at) / RFU BIN1 (11741810_x_at) / Fold change /veh BIN1 (11741810_x_at) / RFU WNT11 (11732464_a_at) / Fold change /veh WNT11 (11732464_a_at) / RFU C10orf10 (11716521_a_at) / Fold change /veh C10orf10 (11716521_a_at) / RFU C5orf56 (11738089_at) / Fold change /veh C5orf56 (11738089_at) / RFU CYB561 (11721691_x_at) / Fold change /veh CYB561 (11721691_x_at) / RFU ANKRD19P (11752326_a_at) / Fold change /veh ANKRD19P (11752326_a_at) / RFU OR2T12 /// OR2T33 /// OR2T8 (11738714_s_at) / Fold change /veh OR2T12 /// OR2T33 /// OR2T8 (11738714_s_at) / RFU VCAN (11748164_a_at) / Fold change /veh VCAN (11748164_a_at) / RFU JSRP1 (11732532_at) / Fold change /veh JSRP1 (11732532_at) / RFU KRTAP10-11 (11738290_x_at) / Fold change /veh KRTAP10-11 (11738290_x_at) / RFU MYO3A (11730013_a_at) / Fold change /veh MYO3A (11730013_a_at) / RFU EBF3 (11725865_a_at) / Fold change /veh EBF3 (11725865_a_at) / RFU CAMK2N1 (11719241_x_at) / Fold change /veh CAMK2N1 (11719241_x_at) / RFU C5orf56 (11738088_a_at) / Fold change /veh C5orf56 (11738088_a_at) / RFU OLFML3 (11715873_a_at) / Fold change /veh OLFML3 (11715873_a_at) / RFU LOC100653217 /// NTM (11731650_a_at) / Fold change /veh LOC100653217 /// NTM (11731650_a_at) / RFU MAPK11 (11762145_a_at) / Fold change /veh MAPK11 (11762145_a_at) / RFU FIZ1 (11724087_x_at) / Fold change /veh FIZ1 (11724087_x_at) / RFU OASL (11726364_x_at) / Fold change /veh OASL (11726364_x_at) / RFU SOX15 (11748057_x_at) / Fold change /veh SOX15 (11748057_x_at) / RFU CD79A (11719716_a_at) / Fold change /veh CD79A (11719716_a_at) / RFU HIST1H1D (11736915_at) / Fold change /veh HIST1H1D (11736915_at) / RFU CASKIN2 (11723855_a_at) / Fold change /veh CASKIN2 (11723855_a_at) / RFU LOC730098 (11760151_x_at) / Fold change /veh LOC730098 (11760151_x_at) / RFU OR4N2 (11742367_at) / Fold change /veh OR4N2 (11742367_at) / RFU PRRT2 (11749266_a_at) / Fold change /veh PRRT2 (11749266_a_at) / RFU SNX32 (11753110_a_at) / Fold change /veh SNX32 (11753110_a_at) / RFU CDHR5 (11726645_a_at) / Fold change /veh CDHR5 (11726645_a_at) / RFU RCAN1 (11760418_a_at) / Fold change /veh RCAN1 (11760418_a_at) / RFU FAM167A (11723789_a_at) / Fold change /veh FAM167A (11723789_a_at) / RFU FAM26E (11764081_at) / Fold change /veh FAM26E (11764081_at) / RFU ISYNA1 (11749810_s_at) / Fold change /veh ISYNA1 (11749810_s_at) / RFU ACY1 (11761880_at) / Fold change /veh ACY1 (11761880_at) / RFU 11764098_at / Fold change /veh 11764098_at / RFU SAMD14 (11745864_x_at) / Fold change /veh SAMD14 (11745864_x_at) / RFU NPB (11741838_a_at) / Fold change /veh NPB (11741838_a_at) / RFU TMPRSS6 (11731388_a_at) / Fold change /veh TMPRSS6 (11731388_a_at) / RFU KRTAP10-2 (11738614_at) / Fold change /veh KRTAP10-2 (11738614_at) / RFU ARHGAP8 /// PRR5-ARHGAP8 (11727945_x_at) / Fold change /veh ARHGAP8 /// PRR5-ARHGAP8 (11727945_x_at) / RFU KRTAP5-7 /// NADSYN1 (11734609_at) / Fold change /veh KRTAP5-7 /// NADSYN1 (11734609_at) / RFU RASL12 (11751679_a_at) / Fold change /veh RASL12 (11751679_a_at) / RFU CDKN2B (11736163_a_at) / Fold change /veh CDKN2B (11736163_a_at) / RFU PRF1 (11729649_at) / Fold change /veh PRF1 (11729649_at) / RFU, ZNF638 /// ZNF638-IT1 / Fold change vs veh, ZNF638 /// ZNF638-IT1 / RFU, PANK3 / Fold change vs veh, PANK3 / RFU, SH3YL1 / Fold change vs veh, SH3YL1 / RFU, ZEB2 / Fold change vs veh, ZEB2 / RFU, NRIP1 / Fold change vs veh, NRIP1 / RFU, PTTG1IP / Fold change vs veh, PTTG1IP / RFU, CAPN2 / Fold change vs veh, CAPN2 / RFU, MED14 / Fold change vs veh, MED14 / RFU, SNORA58 / Fold change vs veh, SNORA58 / RFU, C1orf63 / Fold change vs veh, C1orf63 / RFU, LRRFIP1 / Fold change vs veh, LRRFIP1 / RFU, NDUFAF7 / Fold change vs veh, NDUFAF7 / RFU, SLC12A2 / Fold change vs veh, SLC12A2 / RFU, IBTK / Fold change vs veh, IBTK / RFU, ESF1 / Fold change vs veh, ESF1 / Fold change vs veh, TMEM50B / RFU, TAOK1 / Fold change vs veh, TAOK1 / RFU, ACBD3 / Fold change vs veh, ACBD3 / RFU, TMA16 / Fold change vs veh, TMA16 / RFU, RWDD3 / Fold change vs veh, RWDD3 / RFU, BCAT1 / Fold change vs veh, BCAT1 / RFU, EDEM3 / Fold change vs veh, EDEM3 / RFU, TMEM33 / Fold change vs veh, TMEM33 / RFU, WDR75 / Fold change vs veh, WDR75 / RFU, AHCTF1 / Fold change vs veh, AHCTF1 / RFU, TFRC / Fold change vs veh, TFRC / RFU, ZDHHC17 / Fold change vs veh, ZDHHC17 / RFU, NOM1 / Fold change vs veh, NOM1 / RFU, ARL8B / Fold change vs veh, ARL8B / RFU, ZBTB11 / Fold change vs veh, ZBTB11 / RFU, TAMM41 / Fold change vs veh, TAMM41 / RFU, KIAA1704 /// LOC100996395 / Fold change vs veh, KIAA1704 /// LOC100996395 / RFU, ING1 / Fold change vs veh, ING1 / RFU, TRMT61B / Fold change vs veh, TRMT61B / RFU, FUBP3 / Fold change vs veh, FUBP3 / RFU, TP53 / Fold change vs veh, TP53 / RFU, TNKS2 / Fold change vs veh, TNKS2 / RFU, ZFP14 / Fold change vs veh, ZFP14 / RFU, ACTR2 / Fold change vs veh, ACTR2 / RFU, PPP3R1 / Fold change vs veh, PPP3R1 / RFU, PIK3R1 / Fold change vs veh, PIK3R1 / RFU, HNRNPA1 / Fold change vs veh, HNRNPA1 / RFU, RNF170 / Fold change vs veh, RNF170 / RFU, ZNF28 / Fold change vs veh, ZNF28 / RFU, RNGTT / Fold change vs veh, RNGTT / RFU, OGT / Fold change vs veh, OGT / RFU, BRD1 / Fold change vs veh, BRD1 / RFU, MARS / Fold change vs veh, MARS / RFU, ZNF655 / Fold change vs veh, ZNF655 / RFU, FAHD1 / Fold change vs veh, FAHD1 / RFU, BDP1 / Fold change vs veh, BDP1 / RFU, LRRCC1 / Fold change vs veh, LRRCC1 / RFU, ARID1A / Fold change vs veh, ARID1A / RFU, ZNF146 / Fold change vs veh, ZNF146 / RFU, ZNF330 / Fold change vs veh, ZNF330 / RFU, GPN3 / Fold change vs veh, GPN3 / RFU, C9orf123 / Fold change vs veh, C9orf123 / RFU, N4BP2L2 / Fold change vs veh, N4BP2L2 / RFU, ARFIP1 / Fold change vs veh, ARFIP1 / RFU, FAM179B / Fold change vs veh, FAM179B / RFU, BCL10 / Fold change vs veh, BCL10 / RFU, UHRF1BP1L / Fold change vs veh, UHRF1BP1L / RFU, BET1 / Fold change vs veh, BET1 / RFU, CNOT2 / Fold change vs veh, CNOT2 / RFU, ZNF268 / Fold change vs veh, ZNF268 / Fold change vs veh, ZNF507 / RFU, DGCR2 / Fold change vs veh, DGCR2 / RFU, WDSUB1 / Fold change vs veh, WDSUB1 / Fold change vs veh, HSP90B1 /// MIR3652 / RFU, ADSS / Fold change vs veh, ADSS / RFU, GK / Fold change vs veh, GK / RFU, ZNF148 / Fold change vs veh, ZNF148 / RFU, TAF9 / Fold change vs veh, TAF9 / RFU, SLC1A5 / Fold change vs veh, SLC1A5 / RFU, SLMO2 / Fold change vs veh, SLMO2 / RFU, ABCC4 / Fold change vs veh, ABCC4 / RFU, LOC101060439 /// RAP1B / Fold change vs veh, LOC101060439 /// RAP1B / RFU, RFX7 / Fold change vs veh, RFX7 / RFU, GTPBP10 / Fold change vs veh, GTPBP10 / RFU, CNEP1R1 / Fold change vs veh, CNEP1R1 / RFU, BIVM-ERCC5 /// ERCC5 / Fold change vs veh, BIVM-ERCC5 /// ERCC5 / RFU, ILF3 / Fold change vs veh, ILF3 / RFU 11762660_at / Fold change /veh 11762660_at / RFU VCAN (11757783_s_at) / Fold change /veh VCAN (11757783_s_at) / RFU DDX43 (11728927_at) / Fold change /veh DDX43 (11728927_at) / RFU KRT8 (11758188_x_at) / Fold change /veh KRT8 (11758188_x_at) / RFU NKD1 (11759106_at) / Fold change /veh NKD1 (11759106_at) / RFU SRD5A1 (11742802_a_at) / Fold change /veh SRD5A1 (11742802_a_at) / RFU TPSAB1 /// TPSB2 (11721975_s_at) / Fold change /veh TPSAB1 /// TPSB2 (11721975_s_at) / RFU GSTM3 (11746129_a_at) / Fold change /veh GSTM3 (11746129_a_at) / RFU IL23R (11737362_x_at) / Fold change /veh IL23R (11737362_x_at) / RFU TMEM51 (11727254_a_at) / Fold change /veh TMEM51 (11727254_a_at) / RFU PIWIL2 (11732686_x_at) / Fold change /veh PIWIL2 (11732686_x_at) / RFU ORM1 (11744905_x_at) / Fold change /veh ORM1 (11744905_x_at) / RFU CCDC152 (11743942_at) / Fold change /veh CCDC152 (11743942_at) / RFU ECM1 (11717891_a_at) / Fold change /veh ECM1 (11717891_a_at) / RFU IL23R (11748794_a_at) / Fold change /veh IL23R (11748794_a_at) / RFU TNFAIP8L3 (11732012_x_at) / Fold change /veh TNFAIP8L3 (11732012_x_at) / RFU MBOAT4 (11741988_at) / Fold change /veh MBOAT4 (11741988_at) / RFU 11764193_at / Fold change /veh 11764193_at / RFU TMEM53 (11763286_at) / Fold change /veh TMEM53 (11763286_at) / RFU MAGEB2 (11727129_at) / Fold change /veh MAGEB2 (11727129_at) / RFU TMEM200A (11744735_a_at) / Fold change /veh TMEM200A (11744735_a_at) / RFU CCDC152 (11751479_a_at) / Fold change /veh CCDC152 (11751479_a_at) / RFU FAM211A (11726209_a_at) / Fold change /veh FAM211A (11726209_a_at) / RFU RGS16 (11746705_a_at) / Fold change /veh RGS16 (11746705_a_at) / RFU VCAN (11755009_s_at) / Fold change /veh VCAN (11755009_s_at) / RFU RHOB (11743442_s_at) / Fold change /veh RHOB (11743442_s_at) / RFU RGS16 (11720943_a_at) / Fold change /veh RGS16 (11720943_a_at) / RFU RGS16 (11720944_at) / Fold change /veh RGS16 (11720944_at) / RFU, VPS4B / Fold change vs veh, VPS4B / RFU, CREB1 / Fold change vs veh, CREB1 / RFU, DNAJC13 / Fold change vs veh, DNAJC13 / RFU, GNAQ / Fold change vs veh, GNAQ / RFU, CDK5R1 / Fold change vs veh, CDK5R1 / RFU, ZRANB3 / Fold change vs veh, ZRANB3 / RFU, CUL4A / Fold change vs veh, CUL4A / RFU, CCNY / Fold change vs veh, CCNY / RFU, UFL1 / Fold change vs veh, UFL1 / RFU, COG3 / Fold change vs veh, COG3 / RFU, DIAPH2 / Fold change vs veh, DIAPH2 / RFU, SKA2 / Fold change vs veh, SKA2 / RFU, AFF3 / Fold change vs veh, AFF3 / RFU, LMF1 / Fold change vs veh, LMF1 / RFU, IPO11 / Fold change vs veh, IPO11 / RFU, DFFB / Fold change vs veh, DFFB / RFU, FOXP1 / Fold change vs veh, FOXP1 / RFU, CARD8 / Fold change vs veh, CARD8 / RFU, STRN3 / Fold change vs veh, STRN3 / RFU, ADK / Fold change vs veh, ADK / RFU, RASSF2 / Fold change vs veh, RASSF2 / RFU, WIPF1 / Fold change vs veh, WIPF1 / RFU, LARP1B / Fold change vs veh, LARP1B / RFU, RASA1 / Fold change vs veh, RASA1 / RFU, RB1 / Fold change vs veh, RB1 / RFU, PPFIA1 / Fold change vs veh, PPFIA1 / RFU, MAT2A / Fold change vs veh, MAT2A / RFU, CCT5 / Fold change vs veh, CCT5 / RFU, WDR92 / Fold change vs veh, WDR92 / RFU, CUX1 / Fold change vs veh, CUX1 / RFU, TTC7A / Fold change vs veh, TTC7A / RFU, TMEM135 / Fold change vs veh, TMEM135 / RFU, DEPTOR / Fold change vs veh, DEPTOR / RFU, CPM / Fold change vs veh, CPM / RFU, DNAJB6 / Fold change vs veh, DNAJB6 / RFU, CACNA2D3 / Fold change vs veh, CACNA2D3 / RFU, DTX4 / Fold change vs veh, DTX4 / RFU, TFCP2 / Fold change vs veh, TFCP2 / RFU, GMCL1 /// GMCL1P1 / Fold change vs veh, GMCL1 /// GMCL1P1 / RFU, AEBP2 / Fold change vs veh, AEBP2 / RFU, SNHG1 /// SNORD22 /// SNORD25 /// SNORD26 /// SNORD27 /// SNORD28 /// SNORD29 /// SNORD31 / Fold change vs veh, SNHG1 /// SNORD22 /// SNORD25 /// SNORD26 /// SNORD27 /// SNORD28 /// SNORD29 /// SNORD31 / Fold change (Aza/veh), C12orf56 (ProbeSet 11735607_a_at) / Fold change (ACY-1035/veh), C12orf56 (ProbeSet 11735607_a_at) / Fold change (Aza/veh), FGFR1OP (ProbeSet 11751329_s_at) / Fold change (ACY-1035/veh), FGFR1OP (ProbeSet 11751329_s_at) / Fold change (Aza/veh), VPS36 (ProbeSet 11739960_a_at) / Fold change (ACY-1035/veh), VPS36 (ProbeSet 11739960_a_at) / RFU SYPL1 (11715823_x_at) / Fold change /veh SYPL1 (11715823_x_at) / RFU IGFBP7 (11715501_s_at) / Fold change /veh IGFBP7 (11715501_s_at) / RFU REEP3 (11722064_at) / Fold change /veh REEP3 (11722064_at) / RFU IGLL1 (11728026_x_at) / Fold change /veh IGLL1 (11728026_x_at): dose or concentration left out as unconfirmed
Settings: MV-4-11 cells, 48 hours

Nc1ncn([C@@H]2O[C@H](CO)[C@@H](O)[C@H]2O)c(=O)n1 [azacitidine]
Fold change /veh TUBB4B (11761932_at): 1.00

From paper PMC5218480 (PLoS ONE, 2017)
